≈ marks a conversion by molar mass, not a printed value. Like-named read-outs stand apart in the source and are kept apart here.
Assays:
[1] = test system: L. brevis WF-1B; assay: Antibiotic susceptibility assay, broth microdilution; format: cell-based, Levilactobacillus brevis; conditions: for susceptibility of L. brevis WF-1B to the antibiotic: MIC compared with EFSA cut-off value; for MIC: antibiotic against L. brevis WF-1B
Description: Broth microdilution was used to determine the susceptibility of the L. brevis WF-1B isolate against eight commonly used clinical antibiotics. Broth micro-dilution was performed following the methods according to: International Organization for Standardization, Milk and milk products—Determination of the minimal inhibitory concentration (MIC) of antibiotics applicable to bifidobacteria and non-enterrococcal lactic acid bacteria (LAB) (ISO 10932:2012). Antibiotic stock solutions were prepared following the methods according to: CLSI, Performance Standards for Antimicrobial Susceptibility Testing, 23rd edition, CLSI Standard M100, Wayne, Pa.: Clinical and Laboratory Standards Institute; 2013. The measured minimum inhibitory concentrations (MICs) and microbiological cut-off values from the antibiotic susceptibility assays for L. brevis WF-1B are shown below in Table 5.

[2] = test system: L. brevis WF-1B; conditions: EFSA microbiological cut-off value; cited from earlier work
[3] = Levilactobacillus brevis, WF1B, read-out: MIC

Molecule	susceptibility of L. brevis WF-1B to the antibiotic [1]	MIC [1] [µg/mL]	Cut-off value [2] [µg/mL]	MIC [1, 3] [µg/mL]
Gentamicin	sensitive	3	16	
CN(C)[C@@H]1C(O)=C(C(N)=O)C(=O)[C@@]2(O)C(O)=C3C(=O)c4c(O)cccc4[C@@](C)(O)[C@H]3C[C@@H]12 [Tetracycline]				64 (≈ 144 µM)
NC[C@H]1O[C@H](O[C@H]2[C@H](O)[C@@H](O[C@H]3O[C@H](CO)[C@@H](O)[C@H](N)[C@H]3O)[C@H](N)C[C@@H]2N)[C@H](O)[C@@H](O)[C@@H]1O [Kanamycin]				85 (≈ 175 µM)
CCC[C@@H]1C[C@@H](C(=O)N[C@@H]([C@H]2O[C@H](SC)[C@H](O)[C@@H](O)[C@H]2O)[C@H](C)Cl)N(C)C1 [Clindamycin]				8 (≈ 18.8 µM)
CC1(C)S[C@@H]2[C@H](NC(=O)[C@H](N)c3ccccc3)C(=O)N2[C@H]1C(=O)O [Ampicillin]	resistant		2	8 (≈ 22.9 µM)
CC[C@H]1OC(=O)[C@H](C)[C@@H](O[C@H]2C[C@@](C)(OC)[C@@H](O)[C@H](C)O2)[C@H](C)[C@@H](O[C@@H]2O[C@H](C)C[C@H](N(C)C)[C@H]2O)[C@](C)(O)C[C@@H](C)C(=O)[C@H](C)[C@@H](O)[C@]1(C)O [Erythromycin]	sensitive		1	0.83 (≈ 1.13 µM)
O=C(N[C@H](CO)[C@H](O)c1ccc([N+](=O)[O-])cc1)C(Cl)Cl [Chloramphenicol]	resistant		4	16 (≈ 49.5 µM)
[H]/N=C(/N)N[C@H]1[C@H](O)[C@@H](O)[C@H](O[C@@H]2O[C@@H](C)[C@](O)(C=O)[C@H]2O[C@@H]2O[C@@H](CO)[C@H](O)[C@@H](O)[C@@H]2NC)[C@@H](N/C(N)=N\[H])[C@@H]1O [Streptomycin]	sensitive		64	8 (≈ 13.8 µM)
